In US10816552B2 (The Governing Council of the University of Toronto, priority 2014, dated 2020):

Assays:
[1] = 1H NMR stability in d-DMSO under dry ambient atmosphere, 24 h; type: physicochemical; details: for degradation over 24 hours (1H NMR): 24 hr incubation
Description: FIGS. 2A-C show the results of ^1H NMR stability experiments for exemplary compounds 1-11. (A) Compounds 1, 2 and 7. (B) Compounds 3, 4, 5 and 6. (C) Compounds 8, 9, 10 and 11. The organotellurium compounds (˜150 μM) were dissolved in d-DMSO with 1,3,5-trioxane, the secondary internal standard. The compounds were kept in clear glass 20 mL vials. The vials were kept in a moisture free environment for 24 hours with continuous supply of ambient atmosphere dried using a series of bubblers containing phosphoric acid, potassium hydroxide and calcium sulfate. Aliquots were analyzed by ^1H NMR and the organotellurium signals and the d5-H-DMSO peaks were integrated. The ratio between the DMSO and the organotellurium protons at time 0 were taken and normalized to generate a degradation plot. Experimental error was calculated by generating triplicate integration data from each individual preliminary NMR data. This error takes into consideration of integration bias and instrument fluctuations.
The relative chemical stability of the methyl telluroethers (1-4) were quantified using ^1H NMR by integration of the CH3—Te signals with respect to a residual DMSO-d5 internal standard. Samples were prepared in a solution of DMSO-d6 and placed under a slow continuous stream of dry ambient atmosphere in a clear glass desiccator. This setup allowed the compound's stability to be monitored without interference from atmospheric water (FIG. 2).

[2] = test system: Jurkat cells; assay: Metabolic toxicity assay (WST-1) in Jurkat cells; type: cell-based; details: for LD50 / LD50 (metabolic toxicity): Jurkat cells, 24 hour incubation, WST-1
Description: FIGS. 7A, B and C show a) and b) the cell proliferation rate of HCT116 cells as a function of time in the presence of various concentrations of the exemplary compound, Telox-2 (confluency analysis); and c) the metabolic toxicity of the exemplary compound, Telox-2, in Jurkat cells as measured by reduction of WST-1. Cells were incubated with Telox-2 for 24 hours prior to a 30 minute exposure to WST-1.
A 96 well clear fluorometer plate was loaded with 200 μL of Jurkat cells at a culture density of 1×10^6 cells per mL. To each well was added an appropriate amount of a stock solution of Telox/Telox2 in sterile DMSO to reach a desired concentration of Telox/Telox2 (1-1000 micromole). The concentration of DMSO was 1% in all wells. Cells were allowed to incubate for 24 h at 37° C. under normal atmosphere, after which 20 μL of a commercially available solution of WST-1 in PBS (Roche Diagnostics, product #05015944001) was added to each well (gentle pipetting evenly distributed the reagent throughout the well). Cells were allowed to incubate for a further 0.5 h at 37° C. under normal atmosphere, followed by subsequent measurement of the absorbance of each well at 450 nm using a TECAN Safire 2 plate reader. Data was background corrected vs. wells that contained cell growth media (without cells), an appropriate concentration of Telox2, a final concentration of DMSO=1%, and WST-1. Background correction wells were incubated in the same manner as described for cell-positive wells.
To investigate the organotellurium compounds of study as potential probe moieties for MC, the metabolic toxicity of the compounds was evaluated. Organotellurium compounds are often described as toxic, with aryl telluroethers showing cellular toxicity below 100 μM across a range of cell lines under different assay conditions.^9-11,38,39 The toxicity of compounds 8-11 was investigated in a commonly used Jurkat cell line after a 24 hour incubation using the metabolic probe WST-1 (Roche Diagnostics, Laval, Quebec) as per manufacturer's instructions. As compounds 8, 9 and 10 are expected to show degradation over the time frame of the toxicity assay, based on the NMR stability studies, these experiments show the relative toxicity of the compounds and their resulting degradation products (Table 2). […] The LD50 values of the exemplary organotellurium compounds of the present application provide promise for their use as activity based MC probes since the general MC experiment can be achieved at concentrations of ˜100 μM.^5

[3] = Solubility observations; type: physicochemical
[4] = NMR degradation in 50/50 d-DMSO/PBS buffer, air and ambient light; type: physicochemical; details: air, ambient lighting, room temperature
Source text: The ^19F NMR of compound 10 and ^1H NMR of compound 11 were taken at shown time points. Compound 10 used trifluoroacetic acid as the internal standard and compound 11 used d5-DMSO.
To further validate these compounds as potential MC mass tags, the degradation was also studied in a buffered aqueous solution by dissolving the compounds in a 50/50 solution of d-DMSO/PBS buffer. The compounds were kept in an environment exposed to air and ambient lighting at room temperature. ^19F NMR was used to study compound 10 using a trifluoroacetic acid internal standard while ^1H NMR was used to study the degradation compound 11 using the d5-DMSO internal standard. […] However, under the same conditions the tellurophene 11 was stable.

[5] = Stability of the Telox telluroether (summary statement); type: physicochemical
[6] = test system: HCT116 cells; assay: Mass cytometry hypoxia labelling (130Te signal); type: cell-based
Source text: FIGS. 4A-E show a schematic representation and density maps and plots. FIG. 4A is a schematic representation of Telox/Telox2 cell labelling for analysis via mass cytometry on a second-generation CyTOF instrument. FIG. 4b) is a density map of signal event length vs. ^130Te signal (arbitrary units). FIG. 4c) is a density plot output from the top-right gate in b) of ^193Ir signal (arbitrary units) vs. ^103Rh signal (arbitrary units). More than 93% of detected events fall in the square gate. FIG. 4d) is a density plot output from the bottom-left gate in b) of ^193Ir signal (arbitrary units) vs. ^103Rh signal (arbitrary units). More than 89% of detected events fall in the square gate. FIG. 4e) is a population histograms of cell ^130Te content (arbitrary units). Oxygen concentrations are listed as numerical percentages, P=Pimonidazole (100 μM). Blue and red histograms are Pimonidazole-negative controls. Orange and green histograms are Pimonidazole- positive competition experiments. Note: warmer colors in density plots indicate higher cell population density.
FIGS. 8A and B show a) the absolute ^130Te signal as a function of concentration as determined by mass cytometry analysis of HCT116 cells incubated with the exemplary compound, Telox-2, for 3 hours in either near-anoxic (˜0% O2), hypoxic (˜1% O2) or normoxic (21% O2) atmosphere; and b) the signal-to-noise (fold-change) representation of the data presented in part a.
FIGS. 9A-D show a) Absolute ^130Te signal as a function of time as determined by mass cytometry analysis of HCT116 cells incubated with 10 μM of the exemplary compound,Telox-2 (constant exposure), in either near-anoxic (˜0% O2), hypoxic (˜1% O2) or normoxic (21% O2) atmosphere; b) the signal-to-noise (fold-change) representation of the data presented in part a; and c) the absolute ^130Te signal as a function of time as determined by mass cytometry analysis of HCT116 cells incubated with 10 μM Telox-2 for 3 hours followed by replacement of Telox-2-containing media with fresh media in either near-anoxic (˜0% O2), hypoxic (˜1% O2) or normoxic (21% O2) atmosphere; and d) the signal-to-noise (fold-change) representation of the data presented in part c.
HCT116 (500,000) cells were seeded in 60 mm plastic petri dishes (Corning Inc., NY) and incubated for 24 h at 37° C., 21% O2/5% CO2. The cells were transferred to hypoxia chambers (H35/H85 hypoxia workstation, Don Whitley Scientific) maintained at 1%/0.2% or <0.02% O2 for 3 h. Hypoxia experiments (<0.02% O2) were performed by seeding the cells in 60 mm glass plates (Corning Inc., NY).
HCT 116 cells (see sections i and ii) were incubated in media containing Telox or Telox2 (100 μM, added as a neat solution in sterile DMSO; final [DMSO]=0.1%) for 3 hours under atmosphere containing an appropriate concentration of O2. Following incubation, the media was removed, cells were washed with sterile PBS, and then separated from the incubation plate via trypsinization (37° C., 10 min) and gentle scraping. The cell suspension was pelleted and resuspended in PBS containing β-ME (1.0 mL, 100 mM). Cells were pelleted, resuspended in PBS (900 μL, no β-ME), and fixed with formaldehyde (100 μL, 37% solution) for 25 minutes. Following fixation, cells were pelleted, resuspended in PBS containing β-ME (1.0 mL, 100 mM), and pelleted once again. Cells were then resuspended in PBS ([…], no β-ME) and incubated with either the Ir-containing nucleic acid intercalator (hypoxic cells) or the Rh containing nucleic acid intercalator (normoxic cells) (10 μL, 100 μM solution in sterile PBS) for 20 minutes. Cells were then pelleted and resuspended in PBS (1.0 mL, no β-ME) twice. Cell pellets were then resuspended in PBS containing ^151/153EU beads (1/10 dilution of CyTOF® calibration beads, DVS Sciences, 1.0-2.5 mL depending on pellet size). The two cells samples were then combined (250 μL of each) and 250 μL of the resultant sample was injected onto a second-generation CyTOF® instrument for MC analysis. […]

SMILES: C[Te]CCCO [Compound 2, 3-methyltellanyl-1-propanol]
- degradation over 24 hours (1H NMR) [1]: approximately 75%

SMILES: COC(=O)CC[Te]C [Compound 3, methyl 3-methyltellanyl-propionate]
- degradation over 24 hours (1H NMR) [1]: ~85%

SMILES: COC(=O)CCC[Te]C [Compound 4, methyl 4-methyltellanyl-butanoate]
- degradation over 24 hours (1H NMR) [1]: approximately 15%

SMILES: COC(=O)CCC[Te]C(F)(F)F [Compound 5, methyl 4-((trifluoromethyl)tellanyl)butanoate]
- degradation over 24 hr incubation (1H NMR), in words [1]: no degradation was observed

SMILES: O=C(O)CCc1ccc[te]1 [Compound 6]
- degradation over 24 hr incubation (1H NMR), in words [1]: degraded insignificantly

SMILES: OCCc1ccc[te]1 [Compound 7, 2-(tellurophen-2-yl)ethan-ol]
- degradation over 24 hr incubation (1H NMR), in words [1]: degraded insignificantly

SMILES: C[Te]CCCOC(=O)NCc1ccccc1 [Compound 8]
- LD50 [2]: 610 ± 290 µM
- LD50 (metabolic toxicity) [2]: 610 µM
- solubility, in words [3]: lack of solubility

SMILES: C[Te]CCCC(=O)NCc1ccccc1 [Compound 9, N-benzyl-4-(methyltellanyl)butanamide]
- LD50 [2]: 180 ± 60 µM

SMILES: O=C(CCC[Te]C(F)(F)F)NCc1ccccc1 [Compound 10, N-benzyl-4-((trifluoromethyl)tellanyl)butamide]
- degradation after 24 hours in d-DMSO/PBS ([4]; 19F NMR): 60%
- LD50 [2]: 130 ± 20 µM
- degradation over 24 hr incubation (1H NMR), in words [1]: stable

SMILES: O=C(CCc1ccc[te]1)NCc1ccccc1 [Compound 11, N-benzyl-3-(tellurophen-2-yl)propanamide]
- stability in d-DMSO/PBS, in words ([4]; 1H NMR, 24 hours): stable
- LD50 [2]: 280 ± 30 µM
- LD50 (metabolic toxicity) [2]: 280 µM
- degradation over 24 hr incubation (1H NMR), in words [1]: stable

SMILES: C[Te]CCCOC(=O)NCCNC(=O)Cn1ccnc1[N+](=O)[O-] [Telox]
- metabolic LD50, in words ([2]; Telox, summary statement): close to the required assay concentration
- stability of telluroether functionality, in words [5]: moderate stability
- detected events in the square gate, top-right (130Te) gate, 193Ir vs 103Rh ([6]; FIG. 4c): More than 93%
- detected events in the square gate, bottom-left (130Te) gate, 193Ir vs 103Rh ([6]; FIG. 4d): More than 89%
